Results published in patent publication US20100240656A1, “COMPOUNDS AS HSP90 INHIBITORS” (ORYZON GENOMICS, S.A., priority 2007, published 2010).

How the values were obtained:
Hsp90α = target: T1, Hsp90α (Homo sapiens, UniProt P07900); assay: Human Hsp90α fluorescence polarization competition assay with Example 37 tracer; details: displacement of 50 nM example 37 tracer, 125 nM Hsp90α, 1 h 30 min, 20° C.; read-out: Relative binding affinity values (IC50) obtained from FP measurements
T1 construct: purchased Stressgen Bioreagents SPP-776
From the text: The aim of this study was to determine the binding ability of compounds of the invention to the N-terminal ATP binding site of Hsp90. For that purpose competition assays with fluorescently labeled Hsp90 binders were used (compounds of examples 37 and 41).
Compounds of examples 37 and 41 are structurally based on 8-(6-Iodo-benzo[1,3]dioxol-5-ylsulfanyl)-9-(3-isopropylamino-propyl)-9H-purin-6-ylamine, a known binder of the N-terminal ATP binding site of Hsp90 which has the ability of inhibiting the Hsp90 function (cf. Chiosis G. et al. “Identification of Potent Water Soluble Purine-Scaffold Inhibitors of the Heat Shock Protein 90”, J. Med. Chem., 2006, vol. 49, no. 1, p. 381). Compounds 37 and 41 keep the essential structural features of the known binder (which means that said compounds are able to bind to the ATP binding site) and incorporate a fluorescent probe which allows the detection of the binding by fluorescence polarization.
When the binders of examples 37 and 41 are used in the competition assay, in a first step said binders are allowed to interact with the N-terminal ATP binding site of Hsp90. Then the compounds of the invention are added and it is determined if they are able to bind to the N-terminal ATP binding site (which will imply that the binders of examples 37 and 41 have been replaced from the N-terminal ATP binding site). If after performing the assay, the binding between the tested compound of the invention and the Hsp90 is observed, this will be indicative that the compound of the invention has been bound to the ATP binding site of Hsp90 and, therefore, can inhibit the Hsp90.
Once compounds of examples 37 and 41 were synthesized as reported above, they were dissolved at 238 μM and 1 mM in DMSO respectively (Sigma-Aldrich, cat. No. 154938). Hsp90α was purchased from Stressgen Bioreagents (cat. No. SPP-776; Victoria, Canada). The assay buffer contained 100 mM Tris·HCl, pH 7.4, 20 mM KCl, 6 mM MgCl2. Before each use 5 μg/mL bovine serum albumin (BSA, Pierce, Rockford (Ill.), cat No. 23209), 0.25 mM TCEP (Sigma, cat No. 64706) and 0.01% NP40 (Nonidet P40 Substitute, Fluka, cat No. 74385) were freshly added (cf. Howes et al., “A fluorescence polarization assay for inhibitors of Hsp90”, Analytical Biochemistry, 2006, vol. 350, p. 202-213; Kim et al., “Development of a fluorescence polarization assay for the molecular chaperone Hsp90”, J. Biomol. Screen., 2004, vol. 9 (5)).
Fluorescence polarization measurements were performed on an Infinite F200 (Tecan, Austria). Measurements were taken in black 96-well microplates (Corning Costar No. 3650) in which both the excitation and the emission occurred from the top of the wells. In the Infinite F200, a xenon arc lamp provides excitation light that passes through a 485 nm (20-nm bandwidth) excitation filter and then a polarizer filter. A beam splitter filter directs the polarized excitation light into the well, and emitted fluorescence transmits back through the same beam-splitter filter, through a polarizer filter, and then through a 535 nm (25-nm bandwidth) emission filter for detection (Kim et al., supra). The read time per well was 20 μs, and the number of reads per well was 25.
Compounds were assayed over a three-fold dilution series in a 96-well plate format to determine IC50 values. The serial dilution was performed in a separate 96-well plate (Thermowell 96 well PCR plate, Non-Treated Polypropylene, Corning Costar No. 6551) at 50 times final assay concentration in DMSO. (Howes et al, supra). 2 μl of compound was transferred to a black 96-well plate (Corning Costar No. 3650) and 98 μL of reaction solution (100 mM Tris·HCl, pH 7.4, 20 mM KCl, 6 mM MgCl2, 5 μg/mL bovine serum albumin (BSA), 0.25 mM TCEP, 0.01% NP40, 50 nM the compound of example 37, 125 nM Hsp90α) was added per well. The plate was allowed to equilibrate for 1 h 30 min on a slow moving shaker at 20° C. in the dark. […]

HCT-116 = assay: Cell growth inhibition by AlamarBlue method, HCT-116; assay type: cell-based; details: Homo sapiens; HCT-116, 72 hours; read-out: Cell growth inhibition values (EC50) obtained with AlamarBlue method
Description: (§1) The human colon cancer cell line HCT-116 and the human breast cell lines MCF-7 and SKBr3 were from the American Type Culture Collection (ATCC; CCL-247, HTB-22 and HTB-30, respectively).
(§2) The HCT-116 and SKBr3 cell lines were maintained in DMEM GlutaMAX (Invitrogen) supplemented with 10% fetal calf serum and the MCF-7 cell line was maintained in RPMI1640 GlutaMAX (Invitrogen) containing 1 mM sodium pyruvate and 10% fetal calf serum. Cells were grown in a humidified incubator at 37° C. in 5% CO2
(§3) Cells were plated in 96-well plates (Costar, 3596) at a density of 6000 cells/well in 50 μL medium 24 h before addition of the compounds. Compounds were then added in 8 concentrations, each in triplicate (dilution series of 1 to 3). To do so, a compound-dilution plate at 200× the screening concentrations was prepared in DMSO 100% (Sigma, 154938). Then, 1.7 μL of the 200× diluted compounds were transferred to a new plate and 170 μL of media were added and mixed with the pipette (plate at 2×). Columns 11 and 12 of this plate (controls) were filled with 1% DMSO in cell media (i.e. 1.7 μL DMSO and 170 μL cell media). Finally, 50 μL of this intermediate plate at 2× were transferred to the plate containing the seeded cells and slowly shaken manually. Cells were grown as described above. AlamarBlue viability assay (Biosource, Invitrogen, DAL1100) was performed 72 hours later following manufacturer's protocol. In brief, AlamarBlue diluted in media was added to cells to have a 5% solution (a 2× solution was prepared in media and 100 μL of this solution were transferred to each well, i.e. final volume of 200 μL). Cells were incubated at 37° C., 3 hours and at room temperature for an additional 30 min. Cells with no compound and, cells with no compound and lysed with triton X-100 (30 μL/well added 10 min before treatment with AlamarBlue) were used as controls (6 replicates of each). Fluorescence was monitored at 530 nm excitation and 590 nm emission wavelengths. Results were quantified using ELx800 Universal Microplate Reader (Bio-Tek Instruments, Inc.). EC50 were calculated as the dose of compound required to inhibit cell growth by 50%.

SKBr3 = assay: Cell growth inhibition by AlamarBlue method, SKBr3; assay type: cell-based; details: Homo sapiens, SK-BR-3; SKBr3, 72 hours; read-out: Cell growth inhibition values (EC50) obtained with AlamarBlue method
Description: as §1, §2, §3

Row | SMILES | IC50 (Hsp90α) | EC50 (HCT-116) | EC50 (SKBr3)
1 | CCCCn1c(Sc2cc(OC)ccc2OC)nc(C(N)=O)c1N [Example 27, 5-amino-1-butyl-2-(2,5-dimethoxy-phenylsulfanyl)-1H-imidazole-4-carboxamide] | 200 µM |  | 
2 | Cn1c(Sc2nc3cccc(Cl)c3s2)nc(C(N)=O)c1N [Example 51, 5-amino-2-(7-chloro-benzothiazol-2-ylsulfanyl)-1-methyl-1H-imidazole-4-carboxamide] | 3.1 µM |  | 
3 | CC(=O)Nc1c(C(N)=O)nc(Sc2cc3c(cc2I)OCO3)n1CCCNC(C)C [Example 69, 5-acetylamino-2-(6-iodo-benzo[1,3]dioxol-5-ylsulfanyl)-1-(3-isopropylamino-propyl)-1H-imidazole-4-carboxamide] | 200 µM |  | 
4 | Cn1c(Sc2cc3c(cc2Br)OCO3)nc(C(N)=O)c1N [Example 73, 5-amino-2-[(6-bromo-1,3-benzodioxol-5-yl)thio]-1-methyl-1H-imidazole-4-carboxamide] | 15 µM | 78 µM | 
5 | CC(C)c1cc2c(cc1Sc1nc(C(N)=O)c(N)n1C)OCO2 [Example 75, 5-amino-2-[(6-isopropyl-1,3-benzodioxol-5-yl)thio]-1-methyl-1H-imidazole-4-carboxamide] | 56 µM |  | 
6 | C=Cc1cc2c(cc1Sc1nc(C(N)=O)c(N)n1C)OCO2 [Example 77, 5-amino-1-methyl-2-[(6-vinyl-1,3-benzodioxol-5-yl)thio]-1H-imidazole-4-carboxamide] | 4.5 µM | 39.2 µM | 39.2 µM
7 | CCOc1cc2c(cc1Sc1nc(C(N)=O)c(N)n1C)OCO2 [Example 79, 5-amino-2-[(6-ethoxy-1,3-benzodioxol-5-yl)thio]-1-methyl-1H-imidazole-4-carboxamide] | 12.5 µM | 91.5 µM | 
8 | CSc1cc2c(cc1Sc1nc(C(N)=O)c(N)n1C)OCO2 [Example 81, 5-amino-1-methyl-2-{[6-(methylthio)-1,3-benzodioxol-5-yl]thio}-1H-imidazole-4-carboxamide] | 4 µM |  | 23 µM
9 | Cn1c(Sc2cc3c(cc2S(C)(=O)=O)OCO3)nc(C(N)=O)c1N [Example 83, 5-amino-1-methyl-2-{[6-(methylsulfonyl)-1,3-benzodioxol-5-yl]thio}-1H-imidazole-4-carboxamide] | 8 µM | 26.1 µM | 
10 | Cn1c(Sc2cc3c(cc2I)OCO3)nc(C(N)=O)c1N [Example 85, 5-amino-2-[(6-iodo-1,3-benzodioxol-5-yl)thio]-1-methyl-1H-imidazole-4-carboxamide] | 5.3 µM |  | 
11 | NC(=O)c1nc(Sc2cc3c(cc2Br)OCO3)n(CCCN2CCOCC2)c1N [Example 86, 5-amino-2-[(6-bromo-1,3-benzodioxol-5-yl)thio]-1-(3-morpholin-4-ylpropyl)-1H-imidazole-4-carboxamide] | 3.4 µM | 92 µM | 
12 | NC(=O)c1nc(Sc2cc3c(cc2I)OCO3)n(CCCN2CCOCC2)c1N [Example 87, 5-amino-2-[(6-iodo-1,3-benzodioxol-5-yl)thio]-1-(3-morpholin-4-ylpropyl)-1H-imidazole-4-carboxamide] | 0.9 µM | 1 µM | 4.6 µM
13 | CCN(CC)CCCn1c(Sc2cc3c(cc2I)OCO3)nc(C(N)=O)c1N [Example 88, 5-Amino-2-[(6-iodo-1,3-benzodioxol-5-yl)thio]-1-[3-(diethylamino)propyl]-1H-imidazole-4-carboxamide] | 0.6 µM |  | 1.1 µM
14 | CCN(CC)CCCn1c(Sc2cc3c(cc2Br)OCO3)nc(C(N)=O)c1N [Example 89, 5-amino-2-[(6-bromo-1,3-benzodioxol-5-yl)thio]-1-[3-(diethylamino)propyl]-1H-imidazole-4-carboxamide] | 4.8 µM |  | 18 µM
15 | Cc1c(N)c(C(N)=O)nn1Cc1cc2c(cc1Br)OCO2 [Example 92, 4-amino-1-(6-bromo-benzol[1,3]dioxol-5-ylmethyl)-5-methyl-1H-pyrazole-3-carboxamide] |  | 21 µM | 
16 | CC(=O)Nc1c(C(N)=O)nn(Cc2cc3c(cc2Br)OCO3)c1C [Example 93, 4-(acetylamino)-1-[(6-bromo-1,3-benzodioxol-5-yl)methyl]-5-methyl-1H-pyrazole-3-carboxamide] |  | 30.5 µM | 
17 | CCC(=O)Nc1c(C(N)=O)nn(Cc2cc3c(cc2Br)OCO3)c1C [Example 94, 1-[(6-bromo-1,3-benzodioxol-5-yl)methyl]-5-methyl-4-(propionylamino)-1H-pyrazole-3-carboxamide] |  | 2.1 µM | 
18 | Cc1c(NS(C)(=O)=O)c(C(N)=O)nn1Cc1cc2c(cc1Br)OCO2 [Example 95, 1-[(6-bromo-1,3-benzodioxol-5-yl)methyl]-5-methyl-4-[(methylsulfonyl)amino]-1H-pyrazole-3-carboxamide] |  | 83 µM | 
19 | Cn1c(Sc2cc3c(cc2Br)OCC3)nc(C(N)=O)c1N [Example 97, 5-amino-2-[(6-bromo-2,3-dihydro-1-benzofuran-5-yl)thio]-1-methyl-1H-imidazole-4-carboxamide] | 5 µM | 70 µM | 41 µM
20 | CCN(CC)CCCn1c(Sc2cc3c(cc2SC)OCO3)nc(C(N)=O)c1N [Example 98, 5-amino-2-{[6-(methylthio)-1,3-benzodioxol-5-yl]thio}-1-[3-(diethylamino)propyl]-1H-imidazole-4-carboxamide] | 2 µM | 6 µM | 1.9 µM
21 | CCSc1cc2c(cc1Sc1nc(C(N)=O)c(N)n1CCCN(CC)CC)OCO2 [Example 100, 5-amino-2-{[6-(ethylthio)-1,3-benzodioxol-5-yl]thio}-1-[3-(diethylamino)propyl]-1H-imidazole-4-carboxamide] | 1.45 µM | 1.2 µM | 
